Values after ≈ are worked out from the molar mass of the structure shown.
Columns and labels:
Nannizzia gypsea = test: Antifungal activity against Microsporum gypseum C115 after 48 hrs; assay type: functional
Trichophyton rubrum = test: Antifungal activity against Trichophyton rubrum C113 after 48 hrs; assay type: functional
Trichophyton benhamiae [1] = test: Antifungal activity against Trichophyton mentagrophytes ATCC 9972 after 48 hrs; assay type: functional, Arthroderma benhamiae; conditions: ATCC 9972, 48 h
Candida albicans [2] = test: Antifungal activity against Candida albicans C125-2000 after 48 hrs; assay type: functional
Candida albicans [3] = test: Antifungal activity against Candida albicans C126-2000 after 48 hrs; assay type: functional
Candida albicans [4] = test: Antifungal activity against Candida albicans C127-2000 after 48 hrs; assay type: functional
Candida albicans [5] = test: Antifungal activity against Candida albicans C128-2000 after 48 hrs; assay type: functional
Candida albicans [6] = test: Antifungal activity against Candida albicans ATCC 10231 after 48 hrs; assay type: functional; conditions: ATCC 10231, 48 h
Saccharomyces cerevisiae = test: Antifungal activity against Saccharomyces cerevisiae ATCC 9763 after 48 hrs; assay type: functional; conditions: ATCC 9763, 48 h
Cryptococcus neoformans [7] = test: Antifungal activity against Cryptococcus neoformans ATCC 32264 after 48 hrs; assay type: functional; conditions: ATCC 32264, 48 h
Aspergillus niger = test: Antifungal activity against Aspergillus niger ATCC 9029 after 48 hrs; assay type: functional; conditions: ATCC 9029, 48 h
Aspergillus fumigatus = test: Antifungal activity against Aspergillus fumigatus ATCC 26934 after 48 hrs; assay type: functional; conditions: ATCC 26934, 48 h
Aspergillus flavus = test: Antifungal activity against Aspergillus flavus ATCC 9170 after 48 hrs; assay type: functional; conditions: ATCC 9170, 48 h
Candida albicans [8] = test: Antifungal activity against Candida albicans C129-2000 after 48 hrs; assay type: functional
Candida albicans [9] = test: Antifungal activity against Candida albicans C130-2000 after 48 hrs; assay type: functional
Nakaseomyces glabratus = test: Antifungal activity against Candida glabrata C115-2000 after 48 hrs; assay type: functional
Candida parapsilosis = test: Antifungal activity against Candida parapsilosis C124-2000 after 48 hrs; assay type: functional; conditions: Lodderomyces parapsilosis
Clavispora lusitaniae = test: Antifungal activity against Candida lusitaniae C131-2000 after 48 hrs; assay type: functional
Torulaspora delbrueckii = test: Antifungal activity against Candida coliculosa C122-2000 after 48 hrs; assay type: functional
Pichia kudriavzevii = test: Antifungal activity against Candida krusei C117-2000 after 48 hrs; assay type: functional
Kluyveromyces marxianus = test: Antifungal activity against Candida kefyr C123-2000 after 48 hrs; assay type: functional
Candida tropicalis = test: Antifungal activity against Candida tropicalis C131-1997 after 48 hrs; assay type: functional
Cryptococcus neoformans [10] = test: Antifungal activity against […] ATCC 32264 after 48 hrs; assay type: functional; conditions: ATCC 32264, 48 h
Cryptococcus neoformans [11] = test: Antifungal activity against Candida neoformans IM 983040 after 48 hrs; assay type: functional
Cryptococcus neoformans [12] = test: Antifungal activity against […] IM 972724 after 48 hrs; assay type: functional
Cryptococcus neoformans [13] = test: Antifungal activity against […] IM 042074 after 48 hrs; assay type: functional
Cryptococcus neoformans [14] = test: Antifungal activity against […] IM 983036 after 48 hrs; assay type: functional
Cryptococcus neoformans [15] = test: Antifungal activity against […] IM 00319 after 48 hrs; assay type: functional
Cryptococcus neoformans [16] = test: Antifungal activity against […] IM 972751 after 48 hrs; assay type: functional
Cryptococcus neoformans [17] = test: Antifungal activity against […] IM 031631 after 48 hrs; assay type: functional; conditions: Cryptococcus neoformans, 48 h
Cryptococcus neoformans [18] = test: Antifungal activity against […] IM 031706 after 48 hrs; assay type: functional
Cryptococcus neoformans [19] = test: Antifungal activity against […] IM 961951 after 48 hrs; assay type: functional
Cryptococcus neoformans [20] = test: Antifungal activity against […] IM 052470 after 48 hrs; assay type: functional
Trichophyton benhamiae [21] = test: Antifungal activity against Trichophyton mentagrophytes C108 after 48 hrs; assay type: functional, Arthroderma benhamiae
Trichophyton benhamiae [22] = test: Antifungal activity against Trichophyton mentagrophytes C364 after 48 hrs; assay type: functional, Arthroderma benhamiae
Trichophyton benhamiae [23] = test: Antifungal activity against Trichophyton mentagrophytes C539 after 48 hrs; assay type: functional, Arthroderma benhamiae
Trichophyton benhamiae [24] = test: Antifungal activity against Trichophyton mentagrophytes C738 after 48 hrs; assay type: functional, Arthroderma benhamiae
Trichophyton benhamiae [25] = test: Antifungal activity against Trichophyton mentagrophytes C943 after 48 hrs; assay type: functional, Arthroderma benhamiae

- MIC (Nannizzia gypsea): 15.6 µg/mL (≈ 53.9 µM)
- MIC (Trichophyton rubrum): 15.6 µg/mL (≈ 53.9 µM)
- MIC (Trichophyton benhamiae [1]): 3.9 µg/mL (≈ 13.5 µM)
- MIC (Candida albicans [2]): 31.2 µg/mL (≈ 108 µM)
- MIC50 (Candida albicans [2]): 15.6 µg/mL (≈ 53.9 µM)
- MIC80 (Candida albicans [2]): 31.2 µg/mL (≈ 108 µM)
- MIC (Candida albicans [3]): 15.6 µg/mL (≈ 53.9 µM)
- MIC50 (Candida albicans [3]): 15.6 µg/mL (≈ 53.9 µM)
- MIC80 (Candida albicans [3]): 15.6 µg/mL (≈ 53.9 µM)
- MIC (Candida albicans [4]): 15.6 µg/mL (≈ 53.9 µM)
- MIC50 (Candida albicans [4]): 7.8 µg/mL (≈ 27 µM)
- MIC80 (Candida albicans [4]): 15.6 µg/mL (≈ 53.9 µM)
- MIC (Candida albicans [5]): 15.6 µg/mL (≈ 53.9 µM)
- MIC50 (Candida albicans [5]): 15.6 µg/mL (≈ 53.9 µM)
- MIC80 (Candida albicans [5]): 15.6 µg/mL (≈ 53.9 µM)
- MIC (Candida albicans [6]): 15.6 µg/mL (≈ 53.9 µM)
- MIC (Saccharomyces cerevisiae): 15.6 µg/mL (≈ 53.9 µM)
- MIC (Cryptococcus neoformans [7]): 3.9 µg/mL (≈ 13.5 µM)
- MIC (Aspergillus niger): 62.5 µg/mL (≈ 216 µM)
- MIC (Aspergillus fumigatus): 125 µg/mL (≈ 432 µM)
- MIC (Aspergillus flavus): 62.5 µg/mL (≈ 216 µM)
- MIC (Candida albicans [8]): 31.2 µg/mL (≈ 108 µM)
- MIC50 (Candida albicans [8]): 15.6 µg/mL (≈ 53.9 µM)
- MIC80 (Candida albicans [8]): 31.2 µg/mL (≈ 108 µM)
- MIC (Candida albicans [9]): 15.6 µg/mL (≈ 53.9 µM)
- MIC50 (Candida albicans [9]): 7.8 µg/mL (≈ 27 µM)
- MIC80 (Candida albicans [9]): 15.6 µg/mL (≈ 53.9 µM)
- MIC (Nakaseomyces glabratus): 3.9 µg/mL (≈ 13.5 µM)
- MIC50 (Nakaseomyces glabratus): 3.9 µg/mL (≈ 13.5 µM)
- MIC80 (Nakaseomyces glabratus): 3.9 µg/mL (≈ 13.5 µM)
- MIC (Candida parapsilosis): 31.2 µg/mL (≈ 108 µM)
- MIC50 (Candida parapsilosis): 3.9 µg/mL (≈ 13.5 µM)
- MIC80 (Candida parapsilosis): 31.2 µg/mL (≈ 108 µM)
- MIC (Clavispora lusitaniae): 31.2 µg/mL (≈ 108 µM)
- MIC50 (Clavispora lusitaniae): 15.6 µg/mL (≈ 53.9 µM)
- MIC80 (Clavispora lusitaniae): 31.2 µg/mL (≈ 108 µM)
- MIC (Torulaspora delbrueckii): 31.2 µg/mL (≈ 108 µM)
- MIC50 (Torulaspora delbrueckii): 15.6 µg/mL (≈ 53.9 µM)
- MIC80 (Torulaspora delbrueckii): 31.2 µg/mL (≈ 108 µM)
- MIC (Pichia kudriavzevii): 15.6 µg/mL (≈ 53.9 µM)
- MIC50 (Pichia kudriavzevii): 7.8 µg/mL (≈ 27 µM)
- MIC80 (Pichia kudriavzevii): 15.6 µg/mL (≈ 53.9 µM)
- MIC (Kluyveromyces marxianus): 7.8 µg/mL (≈ 27 µM)
- MIC50 (Kluyveromyces marxianus): 3.9 µg/mL (≈ 13.5 µM)
- MIC80 (Kluyveromyces marxianus): 7.8 µg/mL (≈ 27 µM)
- MIC (Candida tropicalis): 15.6 µg/mL (≈ 53.9 µM)
- MIC50 (Candida tropicalis): 7.8 µg/mL (≈ 27 µM)
- MIC80 (Candida tropicalis): 15.6 µg/mL (≈ 53.9 µM)
- MIC (Cryptococcus neoformans [10]): 3.9 µg/mL (≈ 13.5 µM)
- MIC50 (Cryptococcus neoformans [10]): 3.9 µg/mL (≈ 13.5 µM)
- MIC80 (Cryptococcus neoformans [10]): 3.9 µg/mL (≈ 13.5 µM)
- MIC (Cryptococcus neoformans [11]): 7.8 µg/mL (≈ 27 µM)
- MIC50 (Cryptococcus neoformans [11]): 1.9 µg/mL (≈ 6.57 µM)
- MIC80 (Cryptococcus neoformans [11]): 7.8 µg/mL (≈ 27 µM)
- MIC (Cryptococcus neoformans [12]): 7.8 µg/mL (≈ 27 µM)
- MIC50 (Cryptococcus neoformans [12]): 1.9 µg/mL (≈ 6.57 µM)
- MIC80 (Cryptococcus neoformans [12]): 7.8 µg/mL (≈ 27 µM)
- MIC (Cryptococcus neoformans [13]): 7.8 µg/mL (≈ 27 µM)
- MIC50 (Cryptococcus neoformans [13]): 1.9 µg/mL (≈ 6.57 µM)
- MIC80 (Cryptococcus neoformans [13]): 7.8 µg/mL (≈ 27 µM)
- MIC (Cryptococcus neoformans [14]): 7.8 µg/mL (≈ 27 µM)
- MIC50 (Cryptococcus neoformans [14]): 1.9 µg/mL (≈ 6.57 µM)
- MIC80 (Cryptococcus neoformans [14]): 7.8 µg/mL (≈ 27 µM)
- MIC (Cryptococcus neoformans [15]): 7.8 µg/mL (≈ 27 µM)
- MIC50 (Cryptococcus neoformans [15]): 3.9 µg/mL (≈ 13.5 µM)
- MIC80 (Cryptococcus neoformans [15]): 3.9 µg/mL (≈ 13.5 µM)
- MIC (Cryptococcus neoformans [16]): 7.8 µg/mL (≈ 27 µM)
- MIC50 (Cryptococcus neoformans [16]): 1.9 µg/mL (≈ 6.57 µM)
- MIC80 (Cryptococcus neoformans [16]): 3.9 µg/mL (≈ 13.5 µM)
- MIC (Cryptococcus neoformans [17]): 7.8 µg/mL (≈ 27 µM)
- MIC50 (Cryptococcus neoformans [17]): 3.9 µg/mL (≈ 13.5 µM)
- MIC80 (Cryptococcus neoformans [17]): 7.8 µg/mL (≈ 27 µM)
- MIC (Cryptococcus neoformans [18]): 7.8 µg/mL (≈ 27 µM)
- MIC50 (Cryptococcus neoformans [18]): 7.8 µg/mL (≈ 27 µM)
- MIC80 (Cryptococcus neoformans [18]): 7.8 µg/mL (≈ 27 µM)
- MIC (Cryptococcus neoformans [19]): 7.8 µg/mL (≈ 27 µM)
- MIC50 (Cryptococcus neoformans [19]): 1.9 µg/mL (≈ 6.57 µM)
- MIC80 (Cryptococcus neoformans [19]): 3.9 µg/mL (≈ 13.5 µM)
- MIC (Cryptococcus neoformans [20]): 7.8 µg/mL (≈ 27 µM)
- MIC50 (Cryptococcus neoformans [20]): 1.9 µg/mL (≈ 6.57 µM)
- MIC80 (Cryptococcus neoformans [20]): 7.8 µg/mL (≈ 27 µM)
- MIC (Trichophyton benhamiae [21]): 1.95 µg/mL (≈ 6.74 µM)
- MIC (Trichophyton benhamiae [22]): 0.97 µg/mL (≈ 3.35 µM)
- MIC (Trichophyton benhamiae [23]): 1.95 µg/mL (≈ 6.74 µM)
- MIC (Trichophyton benhamiae [24]): 1.95 µg/mL (≈ 6.74 µM)
- MIC (Trichophyton benhamiae [25]): 0.97 µg/mL (≈ 3.35 µM)
SMILES: O=C1NC(=S)S/C1=C\c1ccc(C(F)(F)F)cc1
- MFC (Candida albicans [2]): 62.5 µg/mL (≈ 216 µM)
- MFC (Candida albicans [3]): 31.2 µg/mL (≈ 108 µM)
- MFC (Candida albicans [4]): 31.2 µg/mL (≈ 108 µM)
- MFC (Candida albicans [5]): 31.2 µg/mL (≈ 108 µM)
- MFC (Candida albicans [8]): 31.2 µg/mL (≈ 108 µM)
- MFC (Candida albicans [9]): 62.5 µg/mL (≈ 216 µM)
- MFC (Nakaseomyces glabratus): 15.6 µg/mL (≈ 53.9 µM)
- MFC (Candida parapsilosis): 62.5 µg/mL (≈ 216 µM)
- MFC (Clavispora lusitaniae): 62.5 µg/mL (≈ 216 µM)
- MFC (Torulaspora delbrueckii): 62.5 µg/mL (≈ 216 µM)
- MFC (Pichia kudriavzevii): 31.2 µg/mL (≈ 108 µM)
- MFC (Kluyveromyces marxianus): 15.6 µg/mL (≈ 53.9 µM)
- MFC (Candida tropicalis): 31.2 µg/mL (≈ 108 µM)
- MFC (Cryptococcus neoformans [10]): 7.8 µg/mL (≈ 27 µM)
- MFC (Cryptococcus neoformans [11]): 15.6 µg/mL (≈ 53.9 µM)
- MFC (Cryptococcus neoformans [12]): 7.8 µg/mL (≈ 27 µM)
- MFC (Cryptococcus neoformans [13]): 7.8 µg/mL (≈ 27 µM)
- MFC (Cryptococcus neoformans [14]): 7.8 µg/mL (≈ 27 µM)
- MFC (Cryptococcus neoformans [15]): 7.8 µg/mL (≈ 27 µM)
- MFC (Cryptococcus neoformans [16]): 7.8 µg/mL (≈ 27 µM)
- MFC (Cryptococcus neoformans [17]; read-out: MFC): 15.6 µg/mL (≈ 53.9 µM)
- MFC (Cryptococcus neoformans [18]): 31.2 µg/mL (≈ 108 µM)
- MFC (Cryptococcus neoformans [19]): 7.8 µg/mL (≈ 27 µM)
- MFC (Cryptococcus neoformans [20]): 12.5 µg/mL (≈ 43.2 µM)

— ChEMBL document CHEMBL1144507, “Synthesis and antifungal activity of (Z)-5-arylidenerhodanines” (2007)
